The values that follow come from patent US9050346B2, “Bromodomain inhibitors” (AbbVie Inc., priority 2013, dated 2015).

Structures are written as SMILES.

Test [1] relates to breast cancer cell line MX-1. The experiment in a line: MX-1 cell line proliferation assay (3-day, Cell Titer Glo). It is filed as cell-based. The conditions noted are these: Homo sapiens, MX1, MX-1 cells, 72 h, top concentration 3 μM, read-out: Cellular proliferation: EC50. As to the method:
The impact of compounds of the Examples on cancer cell proliferation was determined using the breast cancer cell line MX-1 (ATCC) in a 3-day proliferation assay and the data are reported in Table 1. MX-1 cells were maintained in RPMI 1640 medium (Sigma) supplemented with 10% FBS at 37 C.° and an atmosphere of 5% CO2. For compound testing, MX-1 cells were plated in 96-well black bottom plates at a density of 5000 cells/well in 90 μL of culture media and incubated at 37° overnight to allow cell adhesion and spreading. Compound dilution series were prepared in DMSO via a 3-fold serial dilution from 3 mM to 0.1 μM. The DMSO dilution series were then diluted 1:100 in phosphate buffered saline, and 10 μL of the resulted solution were added to the appropriate wells of the MX-1 cell plate. The final compound concentrations in the wells were 3, 1, 0.3, 0.1, 0.03, 0.01, 0.003, 0.001, 0.0003 and 0.0001 μM.
Luminescence readings from the Cell Titer Glo assay were normalized to the DMSO treated cells and analyzed using the GraphPad Prism software with sigmoidal curve fitting to obtain EC50s. The minimum significant ratio (MSR) was determined to evaluate assay reproducibility (Eastwood et al., (2006) J Biomol Screen, 11: 253-261).
(In general: In ATP-based viability assays light output follows the ATP content of the culture.)

The target in a further test is T1, BRD4 (BDII_E352-M457) (Homo sapiens, UniProt O60885).
T1 construct: made in house
As to the kind of experiment: TR-FRET bromodomain binding assay, BRD4 second bromodomain. As to the method: (§1) A time-resolved fluorescence resonance energy transfer (TR-FRET) assay was used to determine the affinities of compounds of the Examples listed in Table 1 for each bromodomain of BRD4. His-tagged first (BD1: amino acids K57-E168) and second (BD2: amino acids E352-E168) bromodomains of BRD4 were expressed and purified. An Alexa647-labeled BET-inhibitor was used as the fluorescent probe in the assay.
(§2) Compound dilution series were prepared in DMSO via an approximately 3-fold serial dilution from one of the following: • Assay method A: 2.5 mM-800 nM • Assay method B: 2.5 mM-797 nM • Assay method C: 1250 μM-21 nM • Assay method D: 500 μM-8.5 nM • Assay method E: 0.47 mM to 7.8 nM • Assay method F: 250 μM-4.2 nM • Assay method G: 0.047 mM to 0.78 nM or 5-fold serial dilution from Assay Method A or Assay Method B.
(§3) For Assay methods A, C, D, and F: Compounds were then diluted 6:100 in assay buffer (20 mM Sodium Phosphate, pH 6.0, 50 mM NaCl, 1 mM Ethylenediaminetetraacetic acid, 0.01% Triton X-100, 1 mM DL-Dithiothreitol) to yield 3× working solutions. Six microliters (μL) of the working solution was then transferred to white, low-volume assay plates (Costar #3673). A 1.5× assay mixture containing His-tagged bromodomain, Europium-conjugated anti-His antibody (Invitrogen PV5596) and the Alexa-647-conjugated probe molecule was also prepared. Twelve μL of this solution were added to the assay plate to reach a final volume of 18 μL.
(§4) For Assay methods B, E, and G: Compound dilutions were added directly into white, low-volume assay plates (Perkin Elmer Proxiplate 384 Plus#6008280) using a Labcyte Echo in conjunction with Labcyte Access and Thermo Multidrop CombinL robotics. Compounds were then suspended in eight microliters (μL) of assay buffer (20 mM Sodium Phosphate, pH 6.0, 50 mM NaCl, 1 mM Ethylenediaminetetraacetic acid disodium salt dihydrate, 0.01% Triton X-100, 1 mM DL-Dithiothreitol) containing His-tagged bromodomain, Europium-conjugated anti-His antibody (Invitrogen PV5596) and Alexa-647-conjugated probe.
(§5) The final concentration of 1× assay mixture for assay methods A, B, C, D, E, F, and G contains 2% DMSO, 8 nM His-tagged bromodomain, 1 nM Europium-conjugated anti-His-tag antibody and 100 nM or 30 nM probe (for BDI or BDII, respectively) and compound concentration in the range of: 50 μM-16 nM for method A, 49.02 μM-15.63 nM for method B, 25 μM-423 pM for method C, 10 μM-169 pM for method D, 9.19 μM-150 pM for method E, 5 μM-85 pM for method F, and 0.92 μM-15 pM for method G.
(§6) After a one-hour equilibration at room temperature, TR-FRET ratios were determined using an Envision multilabel plate reader (Ex 340, Em 495/520).
(§7) TR-FRET data were normalized to the means of 24 no-compound controls (“high”) and 8 controls containing 1 μM un-labeled probe (“low”). Percent inhibition was plotted as a function of compound concentration and the data were fit with the 4 parameter logistic equation to obtain IC50s Inhibition constants (Ki) were calculated from the IC50s, probe Kd and probe concentration. Typical Z′ values were between 0.65 and 0.75. The minimum significant ratio was determined to evaluate assay reproducibility (Eastwood et al., (2006) J Biomol Screen, 11: 253-261). The MSR was determined to be 2.03 for BDI and 1.93 for BDII, and a moving MSR (last six run MSR overtime) for both BDI and BDII was typically <3.
On the technique in general: TR-FRET usually uses a lanthanide donor and a delayed reading to cut background.

The target in the next test is T2, BRD4 (BDI_K57-E168) (Homo sapiens, UniProt O60885).
T2 construct: BD1: amino acids K57-E168; made in house
As to the kind of experiment: TR-FRET bromodomain binding assay, BRD4 first bromodomain. As to conditions: His-tagged BD1, 100 nM Alexa647 probe; Ki calculated from IC50; dilution protocol A-G. As to the method:
as §1, §2, §3, §4, §5, §6, §7

`Cc1[nH]c(-c2cc(NS(C)(=O)=O)ccc2Oc2ccccc2)c2cc(C(N)=O)[nH]c(=O)c12` [Example 20, 3-methyl-1-(5-(methylsulfonamido)-2-phenoxyphenyl)-4-oxo-4,5-dihydro-2H-pyrrolo[3,4-c]pyridine-6-carboxamide]: the EC50 in test [1] came to 146 nM. Also, the Ki (commonly a measure of affinity in units of concentration, obtained from inhibition or displacement) is 2.39 nM at BRD4 (BDII_E352-M457) and 1.64 nM at BRD4 (BDI_K57-E168).
Turning to `CCOC(=O)c1cc2c(-c3ccccc3Oc3ccc(F)cc3F)[nH]c(C)c2c(=O)[nH]1` [Example 21, ethyl 1-[2-(2,4-difluorophenoxy)phenyl]-3-methyl-4-oxo-4,5-dihydro-2H-pyrrolo[3,4-c]pyridine-6-carboxylate], the EC50 in test [1] amounted to 104 nM. Moreover, the Ki on BRD4 (BDII_E352-M457) is 285 nM; on BRD4 (BDI_K57-E168) it was 24.8 nM.
On the same counts, the results for `Cc1[nH]c(-c2ccccc2Oc2ccc(F)cc2F)c2cc(C(N)=O)[nH]c(=O)c12` [Example 23, 1-[2-(2,4-difluorophenoxy)phenyl]-3-methyl-4-oxo-4,5-dihydro-2H-pyrrolo[3,4-c]pyridine-6-carboxamide] are 60.8 nM, 45.1 nM and 6.25 nM.
The corresponding values for `Cc1[nH]c(-c2ccccc2Oc2ccccc2)c2cc(C(=O)NCCN3CCCC3)[nH]c(=O)c12` [Example 25, 3-methyl-4-oxo-1-(2-phenoxyphenyl)-N-[2-(pyrrolidin-1-yl)ethyl]-4,5-dihydro-2H-pyrrolo[3,4-c]pyridine-6-carboxamide] are 163 nM, 92.3 nM and 3.12 nM.
The corresponding values for `Cc1[nH]c(-c2ccccc2Oc2ccccc2)c2cc(C(=O)Nc3nccs3)[nH]c(=O)c12` [Example 26, 3-methyl-4-oxo-1-(2-phenoxyphenyl)-N-(thiazol-2-yl)-4,5-dihydro-2H-pyrrolo[3,4-c]pyridine-6-carboxamide] are 442 nM, 118 nM and 56.8 nM.
Take `Cc1[nH]c(-c2ccccc2Oc2ccccc2)c2cc(C(=O)NCCN3CCOCC3)[nH]c(=O)c12` [Example 27, 3-methyl-N-(2-morpholinoethyl)-4-oxo-1-(2-phenoxyphenyl)-4,5-dihydro-2H-pyrrolo[3,4-c]pyridine-6-carboxamide]: the EC50 in test [1] stood at 98.9 nM. Further, the inhibition constant Ki is 47 nM on BRD4 (BDII_E352-M457) and 3.81 nM at BRD4 (BDI_K57-E168).
The corresponding values for `Cc1[nH]c(-c2ccccc2Oc2ccccc2)c2cc(C(=O)Nc3ccncc3)[nH]c(=O)c12` [Example 28, 3-methyl-4-oxo-1-(2-phenoxyphenyl)-N-(pyridin-4-yl)-4,5-dihydro-2H-pyrrolo[3,4-c]pyridine-6-carboxamide] are 515 nM, 16.8 nM and 42.7 nM.
The corresponding values for `Cc1[nH]c(-c2ccccc2Oc2ccccc2)c2cc(C(=O)N3CCC(O)CC3)[nH]c(=O)c12` [Example 30, 6-(4-hydroxypiperidine-1-carbonyl)-3-methyl-1-(2-phenoxyphenyl)-2H-pyrrolo[3,4-c]pyridin-4(5H)-one] are 1350 nM, 48.8 nM and 92.6 nM.
As to `Cc1[nH]c(-c2ccccc2Oc2ccccc2)c2cc(C(=O)NCc3ccco3)[nH]c(=O)c12` [Example 31, N-(furan-2-ylmethyl)-3-methyl-4-oxo-1-(2-phenoxyphenyl)-4,5-dihydro-2H-pyrrolo[3,4-c]pyridine-6-carboxamide], the EC50 in test [1] is 182 nM. The results for the inhibitory constant (Ki) on BRD4 (BDII_E352-M457) and at BRD4 (BDI_K57-E168) were 155 nM and 87.6 nM, respectively.
The corresponding values for `Cc1[nH]c(-c2cc(Cl)ccc2Oc2ccc(F)cc2F)c2cc(C(N)=O)[nH]c(=O)c12` [Example 32, 1-[5-chloro-2-(2,4-difluorophenoxy)phenyl]-3-methyl-4-oxo-4,5-dihydro-2H-pyrrolo[3,4-c]pyridine-6-carboxamide] are 102 nM, 158 nM and 22.8 nM.
For the compound `CNC(=O)c1cc2c(-c3cc(C(F)(F)F)ccc3Oc3ccc(F)cc3F)[nH]c(C)c2c(=O)[nH]1` [Example 34, 1-[2-(2,4-difluorophenoxy)-5-(trifluoromethyl)phenyl]-N,3-dimethyl-4-oxo-4,5-dihydro-2H-pyrrolo[3,4-c]pyridine-6-carboxamide], in test [1], the EC50 was determined as 355 nM. For the same compound, the Ki on BRD4 (BDII_E352-M457) was 160 nM; on BRD4 (BDI_K57-E168), 77 nM.
Consider `Cc1[nH]c(-c2ccccc2Oc2ccccc2)c2cc(C(=O)NC3CCN(C)CC3)[nH]c(=O)c12` [Example 35, 3-methyl-N-(1-methylpiperidin-4-yl)-4-oxo-1-(2-phenoxyphenyl)-4,5-dihydro-2H-pyrrolo[3,4-c]pyridine-6-carboxamide], for which, in test [1], the EC50 came to 53.6 nM. Besides, the Ki is 48.5 nM at BRD4 (BDII_E352-M457) and 5.21 nM at BRD4 (BDI_K57-E168).
With `Cc1[nH]c(-c2ccccc2Oc2ccccc2)c2cc(C(=O)NCC3CCOC3)[nH]c(=O)c12` (stereo not drawn) [Example 36, 3-methyl-4-oxo-1-(2-phenoxyphenyl)-N-(tetrahydrofuran-3-ylmethyl)-4,5-dihydro-2H-pyrrolo[3,4-c]pyridine-6-carboxamide], the EC50 in test [1] turned out to be 188 nM. The Ki was 20.9 nM at BRD4 (BDII_E352-M457) and 8.83 nM on BRD4 (BDI_K57-E168).
The corresponding values for `Cc1[nH]c(-c2ccccc2Oc2ccccc2)c2cc(C(=O)NC3CCOC3)[nH]c(=O)c12` (stereo not drawn) [Example 37, 3-methyl-4-oxo-1-(2-phenoxyphenyl)-N-(tetrahydrofuran-3-yl)-4,5-dihydro-2H-pyrrolo[3,4-c]pyridine-6-carboxamide] are 161 nM, 13.9 nM and 10.1 nM.
The corresponding values for `Cc1[nH]c(-c2ccccc2Oc2ccccc2)c2cc(C(=O)NC3CCOCC3)[nH]c(=O)c12` [Example 38, 3-methyl-4-oxo-1-(2-phenoxyphenyl)-N-(tetrahydro-2H-pyran-4-yl)-4,5-dihydro-2H-pyrrolo[3,4-c]pyridine-6-carboxamide] are 300 nM, 29 nM and 16.6 nM.
`CCOC(=O)c1cc2c(-c3cc(S(C)(=O)=O)ccc3Oc3ccc(F)cc3F)[nH]c(C)c2c(=O)[nH]1` [Example 39, ethyl 1-[2-(2,4-difluorophenoxy)-5-(methylsulfonyl)phenyl]-3-methyl-4-oxo-4,5-dihydro-2H-pyrrolo[3,4-c]pyridine-6-carboxylate]: the EC50 in test [1] came out at 222 nM. Besides, the Ki on BRD4 (BDII_E352-M457) is 51.8 nM; at BRD4 (BDI_K57-E168), 12.1 nM.
